From patent US7071231B2, “Naphthalene ureas as glucose uptake enhancers” (Telik, Inc., priority 1999, dated 2006)
Where a name gives a salt, the structure may show the parent alone. Read-outs that look alike come from different tables or passages of the source.

Experiments:
[1] = biological target: T1, β-kinase domain of the human insulin receptor (CKD) (Homo sapiens, UniProt P06213); assay: 32P-cytoplasmic kinase domain (CKD) autophosphorylation assay; type: biochemical; settings: phosphorylation of CKD expressed as % of the vehicle level; 10 minutes at room temperature; compound concentration not given
T1 construct: The complete β-kinase domain of the human insulin receptor (CKD) was expressed in, and purified from, baculovirus; made in house
T1 sequence (P06213 980-1382 limits assumed): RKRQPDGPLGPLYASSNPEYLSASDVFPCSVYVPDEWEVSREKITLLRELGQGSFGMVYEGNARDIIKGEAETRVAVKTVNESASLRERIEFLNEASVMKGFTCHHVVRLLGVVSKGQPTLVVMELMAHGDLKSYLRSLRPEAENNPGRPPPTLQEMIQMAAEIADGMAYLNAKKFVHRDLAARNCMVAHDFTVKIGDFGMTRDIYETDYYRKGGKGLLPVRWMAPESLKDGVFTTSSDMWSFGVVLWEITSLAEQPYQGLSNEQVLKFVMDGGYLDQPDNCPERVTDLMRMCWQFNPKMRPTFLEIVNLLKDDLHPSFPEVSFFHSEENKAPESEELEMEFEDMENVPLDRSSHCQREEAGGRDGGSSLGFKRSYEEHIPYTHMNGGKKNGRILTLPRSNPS
Procedure: ^32P-cytoplasmic Kinase Domain (CKD) Autophosphorylation Assay The insulin signaling pathway is activated through stimulation of the insulin receptor. A major component of this activation is the phosphorylation of a specific portion of the receptor called the β-kinase domain. The complete β-kinase domain of the human insulin receptor (CKD) was expressed in, and purified from, baculovirus. CKD (4.0μg/ml), in a solution of 29 mM HEPES (pH 7.6), 0.05% Triton X-100, 10 mM MgCl2, 2 mM MnCl2 (50 μl final volume), was combined with 50 μM ATP, and 5 μCi ^32P-ATP (3000Ci/mmol.). A test compound, or the vehicle (dimethyl sulfoxide (DMSO)) was added to a final DMSO concentration of 1%. The mixture was incubated for 10 minutes at room temperature. The reaction was terminated by the addition of 10 μl 200 mM EDTA. A 30 μl volume was removed, mixed with 5 μl of 6× Laemmeli sodium dodecyl sulfate (SDS) treatment buffer, and heated to 94° C. for 5 minutes. A 20 μl aliquot was then run an SDS-PAGE gel. The radioactivity incorporated into the CKD band was quantified by phosphorimaging of the gel, or scintillation counting of the excised bands. The potency of a compound for increasing phosphorylation was expressed as % of the vehicle level.

3T3 L1 fibroblasts = assay: Glucose transport activity assay (14C-2-deoxy-D-glucose uptake); type: cell-based; settings: EC (effective concentration) for increase in glucose transport, 14C-2-deoxy-D-glucose, 3T3 L1 cells, read-out: Concentration (μM) to reach >150% activity of vehicle control
Procedure, shortened: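 Differentiated 3T3 L1 adipocytes (IBMX/dexamethasone/insulin induction), serum-starved overnight, preincubated 30 min at 37 °C with compound ± insulin in pH 7.4 salt buffer, then 30 min with 5 μCi/ml 14C-2-deoxy-D-glucose. Lysate radioactivity counted; EC = concentration raising uptake above 150% of vehicle control.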

| Compound | % Activity vs. Control [1] [%] | EC (150% of vehicle control) (3T3 L1 fibroblasts; Mus musculus) [µM] | EC (150% of vehicle control) (3T3 L1 fibroblasts) [µM] |
| --- | --- | --- | --- |
| Cc1ccc(OS(=O)(=O)c2cccc(NS(=O)(=O)c3ccc4ccc(NC(=O)Nc5ccc6ccc(S(=O)(=O)Nc7cccc(S(=O)(=O)Oc8ccc(C)cc8)c7)cc6c5)cc4c3)c2)cc1 [Compound 9, 4-methylphenyl 3-[({7-[(N-{7-[({3-[(4-methylphenyl)oxysulfonyl]phenyl}amino)sulfonyl]-2-naphthyl}carbamoyl)amino]-2-naphthyl}sulfonyl)amino]benzenesulfonate] | 118 |  |  |
| Cc1ccc(OS(=O)(=O)c2cccc(NS(=O)(=O)c3cc(O)c4ccc(NC(=O)Nc5ccc6c(O)cc(S(=O)(=O)Nc7cccc(S(=O)(=O)Oc8ccc(C)cc8)c7)cc6c5)cc4c3)c2)cc1 [Compound 11, 4-methylphenyl 3-[({4-hydroxy-7-[(N-{5-hydroxy-7-[({3-[(4-methylphenyl)oxysulfonyl]phenyl}amino)sulfonyl](2-naphthyl)}carbamoyl)amino]-2-naphthyl}sulfonyl)amino]benzenesulfonate] | 96 |  |  |
| NS(=O)(=O)c1cccc(NS(=O)(=O)c2ccc3ccc(NC(=O)Nc4ccc5ccc(S(=O)(=O)Nc6cccc(S(N)(=O)=O)c6)cc5c4)cc3c2)c1 [Compound 23, N-(7-{[(3-sulfamoylphenyl)amino]sulfonyl}(2-naphthyl))[(7-{[(3-sulfamoylphenyl)amino]sulfonyl}(2-naphthyl))amino]carboxamide] | 80 | 10 |  |
| O=C(Nc1ccc2ccc(S(=O)(=O)Nc3ccccc3)cc2c1)Nc1ccc2ccc(S(=O)(=O)Nc3ccccc3)cc2c1 [Compound 76, N-{7-[(phenylamino)sulfonyl](2-naphthyl)}({7-[(phenylamino)sulfonyl](2-naphthyl)}amino)carboxamide] | 89 |  |  |
| O=C(O)COc1cc(S(=O)(=O)[O-])cc2cc(NC(=O)Nc3ccc4c(OCC(=O)O)cc(S(=O)(=O)[O-])cc4c3)ccc12.[Na+].[Na+] [Compound 97, 2-[6-({N-[5-(carboxymethoxy)-7-sulfo(2-naphthyl)]carbamoyl}amino)-3-sulfonaphthyloxy]acetic acid disodium salt] | 99 |  |  |
| O=C(Nc1ccc2cc(S(=O)(=O)Nc3c(F)c(F)cc(C(=O)O)c3F)ccc2c1)Nc1ccc2cc(S(=O)(=O)Nc3c(F)c(F)cc(C(=O)O)c3F)ccc2c1 [Compound 177, 3-{[(6-{[(6-{[(3-carboxy-2,5,6-trifluorophenyl)amino]sulfonyl}(2-naphthyl))amino]carbonylamino}(2-naphthyl))sulfonyl]amino}-2,4,5-trifluorobenzoic acid] |  | > 32 |  |
| O=C(O)Cc1ccc(NS(=O)(=O)c2ccc3cc(NC(=O)Nc4ccc5cc(S(=O)(=O)Nc6ccc(CC(=O)O)cc6)ccc5c4)ccc3c2)cc1 [Compound 179, 2-[4-({[6-({N-[6-({[4-(carboxymethyl)phenyl]amino}sulfonyl)-2-naphthyl]carbamoyl}amino)-2-naphthyl]sulfonyl}amino)phenyl]acetic acid] |  | > 32 |  |
| O=C(Nc1ccc2cc(S(=O)(=O)N3CCCC(C(=O)O)C3)ccc2c1)Nc1ccc2cc(S(=O)(=O)N3CCCC(C(=O)O)C3)ccc2c1 (centres unmarked) [Compound 181, 1-({6-[({6-[(3-carboxypiperidyl)sulfonyl]-2-naphthyl}amino)carbonylamino]-2-naphthyl}sulfonyl)piperidine-3-carboxylic acid] |  | 3.2 |  |
| methyl 2-chloro-5-[({7-[({[7-({[4-chloro-3-(methoxycarbonyl)phenyl]amino}sulfonyl)(2-naphthyl)]amino}iminomethyl)amino](2-naphthyl)}sulfonyl)amino]benzoate [Compound 159] |  |  | 3.2 |

Continued, in another order:

| % Activity vs. Control [1] [%] | Compound | EC (150% of vehicle control) (3T3 L1 fibroblasts; Mus musculus) [µM] | EC (150% of vehicle control) (3T3 L1 fibroblasts) [µM] |
| --- | --- | --- | --- |
| 88 | O=C(Nc1ccc2ccc(S(=O)(=O)O)cc2c1)Nc1ccc2ccc(S(=O)(=O)O)cc2c1 [Compound 3, 7-{[(7-sulfo-2-naphthyl)amino]carbonylamino}naphthalene-2-sulfonic acid disodium salt] | 3.2 |  |
| 131 | O=C(Nc1ccc2ccc(S(=O)(=O)O)cc2c1)Nc1ccc2ccc(S(=O)(=O)Nc3cccc(S(=O)(=O)O)c3)cc2c1 [Compound 12, 7-{[(7-{[(3-sulfophenyl)amino]sulfonyl}-2-naphthyl)amino]carbonylamino}naphthalene-2-sulfonic acid disodium salt] |  |  |
| 110 | O=C(Nc1ccc2c(O)cc(S(=O)(=O)O)cc2c1)Nc1ccc2c(O)cc(S(=O)(=O)Nc3cccc(S(=O)(=O)O)c3)cc2c1 [Compound 14, 4-hydroxy-7-{[(5-hydroxy-7-{[(3-sulfophenyl)amino]sulfonyl}(2-naphthyl))amino]carbonylamino}naphthalene-2-sulfonic acid] |  |  |
| 144 | O=C(Nc1ccc2c(O)c(Br)c(S(=O)(=O)O)cc2c1)Nc1ccc2c(O)c(Br)c(S(=O)(=O)O)cc2c1 [Compound 16, 3-bromo-7-{[(6-bromo-5-hydroxy-7-sulfo(2-naphthyl))amino]carbonylamino}-4-hydroxynaphthalene-2-sulfonic acid disodium salt] | 32 |  |
| 124 | COC(=O)c1ccc(NS(=O)(=O)c2cc(O)c3ccc(NC(=O)Nc4ccc5c(O)cc(S(=O)(=O)O)cc5c4)cc3c2)cc1 [Compound 26, 4-hydroxy-7-({[5-hydroxy-7-({[4-(methoxycarbonyl)phenyl]amino}sulfonyl)(2-naphthyl)]amino}carbonylamino)naphthalene-2-sulfonic acid] | 32 |  |
| 112 | COC(=O)c1ccc(NS(=O)(=O)c2cc(O)c3ccc(NC(=O)Nc4ccc5c(O)cc(S(=O)(=O)Nc6ccc(C(=O)OC)cc6)cc5c4)cc3c2)cc1 [Compound 27, methyl 4-({[4-hydroxy-7-({[5-hydroxy-7-({[4-(methoxycarbonyl)phenyl]amino}sulfonyl)(2-naphthyl)]amino}carbonylamino)-2-naphthyl]sulfonyl}amino)benzoate] |  |  |
| 124 | O=C(Nc1ccc2c(O)cc(S(=O)(=O)O)cc2c1)Nc1ccc2c(O)cc(S(=O)(=O)Nc3ccc(C(=O)O)cc3)cc2c1 [Compound 28, 4-{[(4-hydroxy-7-{[N-(5-hydroxy-7-sulfo(2-naphthyl))carbamoyl]amino}-2-naphthyl)sulfonyl]amino}benzoic acid] | 32 |  |
| 93 | COC(=O)c1cccc(NS(=O)(=O)c2ccc3ccc(NC(=O)Nc4ccc5ccc(S(=O)(=O)Nc6cccc(C(=O)OC)c6)cc5c4)cc3c2)c1 [Compound 39, methyl 3-({[7-({[7-({[3-(methoxycarbonyl)phenyl]amino}sulfonyl)-2-naphthyl]amino}carbonylamino)-2-naphthyl]sulfonyl}amino)benzoate] | 32 |  |
| 130 | O=C(Nc1ccc2ccc(S(=O)(=O)Nc3cccc(C(=O)O)c3)cc2c1)Nc1ccc2ccc(S(=O)(=O)Nc3cccc(C(=O)O)c3)cc2c1 [Compound 40, 3-{[(7-{[N-(7-{[(3-carboxyphenyl)amino]sulfonyl}-2-naphthyl)carbamoyl]amino}-2-naphthyl)sulfonyl]amino}benzoic acid] | 3.2 |  |
| 101 | CCOC(=O)COc1cc(S(=O)(=O)O)cc2cc(NC(=O)Nc3ccc4c(OCC(=O)OCC)cc(S(=O)(=O)O)cc4c3)ccc12.N.N [Compound 95, 4-[(ethoxycarbonyl)-methoxy]-7-[({5-[(ethoxycarbonyl)methoxy]-7-sulfo(2-naphthyl)}amino)-carbonylamino]-naphthalene-2-sulfonic acid, diammonium salt] |  |  |
| 79 | O=C(Nc1ccc2c(OCc3ccccc3S(=O)(=O)O)cc(S(=O)(=O)O)cc2c1)Nc1ccc2c(OCc3ccccc3S(=O)(=O)O)cc(S(=O)(=O)O)cc2c1 [Compound 100, 4-[(2-sulfophenyl)methoxy]-7-[({7-sulfo-5-[(2-sulfophenyl)methoxy](2-naphthyl)}amino)carbonylamino]naphthalene-2-sulfonic acid] |  |  |
| 104 | O=C(Nc1ccc2c(OCCCS(=O)(=O)O)cc(S(=O)(=O)O)cc2c1)Nc1ccc2c(OCCCS(=O)(=O)O)cc(S(=O)(=O)O)cc2c1 [Compound 101, 4-(3-sulfopropoxy)-7-({[7-sulfo-5-(3-sulfopropoxy)(2-naphthyl)]amino}carbonylamino)naphthalene-2-sulfonic acid] |  |  |
| 115 | O=C(Nc1ccc2c(O)cc(S(=O)(=O)O)cc2c1)Nc1ccc2c(OCCCS(=O)(=O)O)cc(S(=O)(=O)O)cc2c1 [Compound 102, 4-hydroxy-7-({[7-sulfo-5-(3-sulfopropoxy)(2-naphthyl)]amino}carbonylamino)naphthalene-2-sulfonic acid] |  |  |
